In the assay the test system is Recombinant human AMPK proteins (α1β1γ1, α2β1γ1, α1(1-335), α1(1-394) or α2(1-394)). Briefly: Scintillation Proximity Assay (SPA) of AMPK activation. It counts as biochemical. Conditions: activator concentration for 50% of maximal enzyme activity; 50 nM recombinant AMPK, 2 μM ATP, 30° C., 2 hr. The method, then:
Recombinant human AMPK α1β1γ1, α2β1γ1 or AMPK α subunit truncations α1(1-335), α1(1-394) and α2(1-394) were constructed, expressed and purified as described previously (Pang, T., Zhang, Z. S., Gu, M., Qiu, B. Y., Yu, L. F., Cao, P. R., Shao, W., Su, M. B., Li, J. Y., Nan, F. J., and Li, J. (2008)). Rat liver AMPK heterotrimer enzyme was obtained from Upstate (Billerica, Mass., U.S.A.).
Scintillation Proximity Assay
Before the Scintillation Proximity Assay (SPA) assay, 200 nM recombinant AMPK proteins (α1β1γ1, α2β1γ1, α1(1-335), α1(1-394) or α2(1-394)) were fully phosphorylated as described previously (Pang et al., 2008). SPA reactions were performed in 96-well plates at a final volume of 501 containing 20 mM Tris-HCl pH 7.5, 5 mM MgCl2, 1 mM DTT, 2 μM biotin-SAMS, 2 μM ATP, 0.2 μCi/well [γ-^33P]ATP, and various amount of activator. Reactions were initiated by the addition of 50 nM recombinant AMPK proteins to the reaction solutions and incubated at 30° C. for 2 hr. After that, reactions were terminated by the addition of 401 stop solution containing 80 μg streptavidin-coated SPA beads per well, 50 mM EDTA, 0.1% Triton X-100 in PBS, pH 7.5 and incubated for 1 hr. Finally, a 160 ul suspension solution containing 2.4 M CsCl, 50 mM EDTA, and 0.1% Triton X-100 in PBS (pH 7.5) was added to the reaction solution to suspend SPA beads completely. SPA signals were determined with a Wallac MicroBeta plate counter (PerkinElmer) 30 min later for calculation of the amount of product formed. The amount of products formed in 2 hr was plotted against activator concentrations to determine the effective concentration of the activator (EC50) required for 50% of maximal enzyme activity.
Compounds as described above have EC50 values between 0.5 uM and 50 uM, preferred compounds have EC50 values between 0.5 uM and 10 uM, particularly preferred compounds have EC50 values between 0.5 uM and 1 uM.
(In general: SPA uses beads or plates that emit light when radiolabelled molecules are held near them.)

Molecules are shown by their SMILES.

As usually defined, the EC50 is the concentration that produces a half-maximal response. As to `COC(=O)c1cccc(CN2C(=O)/C(=C(\c3ccccc3)c3cccc(Br)c3)c3ccccc32)c1` [Example 27, 3-{3-[1-(3-Bromo-phenyl)-1-phenyl-meth-(E)-ylidene]-2-oxo-2,3-dihydro-indol-1-ylmethyl}-benzoic acid methyl ester], the concentration giving a half-maximal response (EC50) worked out at 2730 nM.
Take `COC(=O)c1cccc(CN2C(=O)/C(=C(\c3ccccc3)c3ccccc3SC)c3ccccc32)c1` [Example 28, 3-{3-[1-(2-Methylsulfanyl-phenyl)-1-phenyl-meth-(E)-ylidene]-2-oxo-2,3-dihydro-indol-1-ylmethyl}-benzoic acid methyl ester]: the EC50 worked out at 800 nM.
Regarding `COC(=O)c1cccc(CN2C(=O)/C(=C(\c3ccccc3)c3ccc(Cl)cc3)c3cc(F)cc(Cl)c32)c1` [Example 29, 3-{7-Chloro-3-[1-(4-chloro-phenyl)-1-phenyl-meth-(E)-ylidene]-5-fluoro-2-oxo-2,3-dihydro-indol-1-ylmethyl}-benzoic acid methyl ester], the EC50 came out at 2360 nM.
The value for `COC(=O)c1cccc(CN2C(=O)/C(=C(\c3ccccc3)c3cccc(C(F)(F)F)c3)c3ccccc32)c1` [Example 30, 3-{2-Oxo-3-[1-phenyl-1-(3-trifluoromethyl-phenyl)-meth-(E)-ylidene]-2,3-dihydro-indol-1-ylmethyl}-benzoic acid methyl ester] was 1650 nM.
With `COC(=O)c1cccc(CN2C(=O)/C(=C(\c3ccccc3)c3ccc(S(N)(=O)=O)cc3)c3ccccc32)c1` [Example 31, 3-{2-Oxo-3-[1-phenyl-1-(4-sulfamoyl-phenyl)-meth-(E)-ylidene]-2,3-dihydro-indol-1-ylmethyl}-benzoic acid methyl ester], the concentration giving a half-maximal response (EC50) was 770 nM.
Take `COC(=O)c1cccc(CN2C(=O)/C(=C(\c3ccccc3)c3ccccc3S(C)(=O)=O)c3ccccc32)c1` [Example 32, 3-{3-[1-(2-Methanesulfonyl-phenyl)-1-phenyl-meth-(E)-ylidene]-2-oxo-2,3-dihydro-indol-1-ylmethyl}-benzoic acid methyl ester]: the EC50 is 10500 nM.
Take `COC(=O)c1cccc(CN2C(=O)/C(=C(\c3ccccc3)c3ccsc3)c3ccccc32)c1` [Example 33, 3-{2-Oxo-3-[1-phenyl-1-thiophen-3-yl-meth-(E)-ylidene]-2,3-dihydro-indol-1-ylmethyl}-benzoic acid methyl ester]: the 50% effective concentration (EC50) was 5560 nM.
`COC(=O)c1cccc(CN2C(=O)/C(=C(/c3ccccc3)c3ccc(Cl)cc3)c3ccccc32)c1` [Example 34, 3-{3-[1-(4-Chloro-phenyl)-1-phenyl-meth-(Z)-ylidene]-2-oxo-2,3-dihydro-indol-1-ylmethyl}-benzoic acid methyl ester]: the concentration giving a half-maximal response (EC50) was 1800 nM.
As for `COC(=O)c1cccc(CN2C(=O)/C(=C(\c3ccc(Cl)cc3)c3ccc(C(F)(F)F)cc3)c3ccccc32)c1` [Example 35, 3-{3-[1-(4-Chloro-phenyl)-1-(4-trifluoromethyl-phenyl)-meth-(Z)-ylidene]-2-oxo-2,3-dihydro-indol-1-ylmethyl}-benzoic acid methyl ester], the EC50 is 2950 nM.
With `CCOC(=O)COc1ccc(CN2C(=O)/C(=C(\c3ccccc3)c3ccc(Cl)cc3)c3ccccc32)cc1` [Example 36, (4-{3-[1-(4-Chloro-phenyl)-1-phenyl-meth-(E)-ylidene]-2-oxo-2,3-dihydro-indol-1-ylmethyl}-phenoxy)-acetic acid ethyl ester], the EC50 was 3690 nM.
The same measure for `CC(C)NC(=O)c1cccc(CN2C(=O)/C(=C(\c3ccccc3)c3ccc(Cl)cc3)c3ccccc32)c1` [Example 37, 3-{3-[1-(4-Chloro-phenyl)-1-phenyl-meth-(E)-ylidene]-2-oxo-2,3-dihydro-indol-1-ylmethyl}-N-isopropyl-benzamide]: 4490 nM.
For `COC(=O)c1ccc(CN2C(=O)/C(=C(\c3ccccc3)c3ccc(Cl)cc3)c3ccccc32)nc1` [Example 38, 6-{3-[1-(4-Chloro-phenyl)-1-phenyl-meth-(E)-ylidene]-2-oxo-2,3-dihydro-indol-1-ylmethyl}-nicotinic acid methyl ester], the EC50 worked out at 2910 nM.
On to `CCOC(=O)c1csc(CN2C(=O)/C(=C(\c3ccccc3)c3ccc(Cl)cc3)c3ccccc32)n1` [Example 39, 2-{3-[1-(4-Chloro-phenyl)-1-phenyl-meth-(E)-ylidene]-2-oxo-2,3-dihydro-indol-1-ylmethyl}-thiazole-4-carboxylic acid ethyl ester], for which the EC50 was determined as 1570 nM.
In the case of `O=C1/C(=C(\c2ccccc2)c2ccc(Cl)cc2)c2ccccc2N1Cc1cc(O)c(O)c(O)c1` [Example 41, 3-[1-(4-Chloro-phenyl)-1-phenyl-meth-(E)-ylidene]-1-(3,4,5-trihydroxy-benzyl)-1,3-dihydro-indol-2-one], the half-maximal effective concentration (EC50) turned out to be 4510 nM.
The same measure for `O=C1/C(=C(/c2ccccc2)c2ccc(Cl)cc2)c2ccccc2N1Cc1cc(O)c(O)c(O)c1` [Example 42, 3-[1-(4-Chloro-phenyl)-1-phenyl-meth-(Z)-ylidene]-1-(3,4,5-trihydroxy-benzyl)-1,3-dihydro-indol-2-one]: 4500 nM; for `O=C1/C(=C(\c2ccccc2)c2ccc(Cl)cc2)c2ccccc2N1Cc1ccc(O)cc1` [Example 43, 3-[1-(4-Chloro-phenyl)-1-phenyl-meth-(E)-ylidene]-1-(4-hydroxy-benzyl)-1,3-dihydro-indol-2-one]: 3230 nM; for `O=C(O)c1cccc(CN2C(=O)/C(=C(\c3ccccc3)c3ccc(Cl)cc3)c3ccccc32)c1` [Example 44, 3-{3-[1-(4-Chloro-phenyl)-1-phenyl-meth-(E)-ylidene]-2-oxo-2,3-dihydro-indol-1-ylmethyl}-benzoic acid]: 1210 nM.
On to `O=C(O)c1cccc(CN2C(=O)/C(=C(\c3ccccc3)c3ccc(F)cc3)c3ccccc32)c1` [Example 45, 3-{3-[1-(4-Fluoro-phenyl)-1-phenyl-meth-(E)-ylidene]-2-oxo-2,3-dihydro-indol-1-ylmethyl}-benzoic acid], for which the EC50 was found to be 1890 nM.
Consider `COc1ccc(/C(=C2/C(=O)N(Cc3cccc(C(=O)O)c3)c3ccccc32)c2ccccc2)cc1` [Example 46, 3-{3-[1-(4-Methoxy-phenyl)-1-phenyl-meth-(E)-ylidene]-2-oxo-2,3-dihydro-indol-1-ylmethyl}-benzoic acid], for which the half-maximal effective concentration (EC50) was found to be 4020 nM.
The same measure for `COc1ccccc1/C(=C1\C(=O)N(Cc2cccc(C(=O)O)c2)c2ccccc21)c1ccc(Cl)cc1` [Example 47, 3-{3-[1-(4-Chloro-phenyl)-1-(2-methoxy-phenyl)-meth-(Z)-ylidene]-2-oxo-2,3-dihydro-indol-1-ylmethyl}-benzoic acid]: 2380 nM; for `O=C(O)c1cccc(CN2C(=O)/C(=C(\c3ccccc3)c3ccc(C(F)(F)F)cc3)c3ccccc32)c1` [Example 48, 3-{2-Oxo-3-[1-phenyl-1-(4-trifluoromethyl-phenyl)-meth-(E)-ylidene]-2,3-dihydro-indol-1-ylmethyl}-benzoic acid]: 3150 nM; for `O=C(O)c1cccc(CN2C(=O)/C(=C(\c3ccccc3)c3ccccc3OC(F)(F)F)c3ccccc32)c1` [Example 49, 3-{2-Oxo-3-[1-phenyl-1-(2-trifluoromethoxy-phenyl)-meth-(E)-ylidene]-2,3-dihydro-indol-1-ylmethyl}-benzoic acid]: 1750 nM.
The value for `O=C(O)c1cccc(CN2C(=O)/C(=C(\c3ccccc3)c3ccc(F)c(Cl)c3)c3ccccc32)c1` [Example 50, 3-{3-[1-(3-Chloro-4-fluoro-phenyl)-1-phenyl-meth-(E)-ylidene]-2-oxo-2,3-dihydro-indol-1-ylmethyl}-benzoic acid] was 5890 nM; that for `COc1cc(/C(=C2/C(=O)N(Cc3cccc(C(=O)O)c3)c3ccccc32)c2ccccc2)cc(OC)c1OC` [Example 51, 3-{2-Oxo-3-[1-phenyl-1-(3,4,5-trimethoxy-phenyl)-meth-(E)-ylidene]-2,3-dihydro-indol-1-ylmethyl}-benzoic acid] was 1420 nM; that for `O=C(O)c1cccc(CN2C(=O)/C(=C(\c3ccccc3)c3cccc(Cl)c3)c3ccccc32)c1` [Example 52, 3-{3-[1-(3-Chloro-phenyl)-1-phenyl-meth-(E)-ylidene]-2-oxo-2,3-dihydro-indol-1-ylmethyl}-benzoic acid] was 6550 nM.
The value for `O=C(O)c1cccc(CN2C(=O)/C(=C(\c3ccccc3)c3ccc(Cl)cc3)c3cc(F)ccc32)c1` [Example 53, 3-{3-[1-(4-Chloro-phenyl)-1-phenyl-meth-(E)-ylidene]-5-fluoro-2-oxo-2,3-dihydro-indol-1-ylmethyl}-benzoic acid] was 5890 nM.

The values above are taken from US8778973B2, “Alkene oxindole derivatives” (Hoffmann-La Roche Inc., priority 2009, dated 2014).
